The results in this text go back to US10092584B2 (Achillion Pharmaceuticals, Inc., priority 2015, dated 2018).

Molecules are shown by their SMILES.

T1 sequence (P00746 26-253): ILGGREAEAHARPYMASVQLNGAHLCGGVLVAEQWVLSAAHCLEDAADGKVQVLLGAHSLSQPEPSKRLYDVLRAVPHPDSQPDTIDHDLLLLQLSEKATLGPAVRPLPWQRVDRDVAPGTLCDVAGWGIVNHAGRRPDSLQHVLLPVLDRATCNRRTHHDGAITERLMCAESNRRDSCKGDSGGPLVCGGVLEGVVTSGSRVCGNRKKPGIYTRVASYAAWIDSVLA

The first assay addresses T1, Human Factor D (Homo sapiens, UniProt P00746).
T1 construct: purified from human serum; purchased Complement Technology, Inc; host or cells: human serum
Nature of the assay: Human Factor D assay (Example 8). The class given is biochemical.
Settings: not given
In outline:
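Serum-purified human Factor D (80 nM final) was preincubated with test compound at various concentrations for 5 min at room temperature in 50 mM Tris, 1M NaCl, pH 7.5. Z-L-Lys-SBzl and DTNB were then added at 100 μM each. IC50 came from nonlinear regression of reaction rates versus compound concentration.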
By IC50 is commonly meant the midpoint of a concentration-inhibition curve. For `N#Cc1cccc2c(C(N)=O)nn(CC(=O)N3C[C@H](F)C[C@H]3C(=O)Nc3cccc(-c4ccccc4Cl)c3F)c12` [Compound 111, 1-(2-((2S,4R)-2-((2′-Chloro-2-fluoro-[1,1′-biphenyl]-3-yl)carbamoyl)-4-fluoropyrrolidin-1-yl)-2-oxoethyl)-7-cyano-1H-indazole-3-carboxamide], the IC50 is less than 1 µM.
As to `CC(=O)c1cn(CC(=O)N2C[C@H](F)C[C@H]2C(=O)Nc2cccc(-c3ccccc3Cl)c2F)c2c(-c3ccc(Cl)nc3)cccc12` [Compound 112, (2S,4R)-1-(2-(3-acetyl-7-(6-chloropyridin-3-yl)-1H-indol-1-yl)acetyl)-N-(2′-chloro-2-fluorobiphenyl-3-yl)-4-fluoropyrrolidine-2-carboxamide], the IC50 was less than 1 µM.
For `CC(=O)c1cn(CC(=O)N2C[C@H](F)C[C@H]2C(=O)Nc2cccc(-c3ccccc3Cl)c2F)c2c(C3CC3)cccc12` [Compound 115, (2S,4R)-1-(2-(3-acetyl-7-cyclopropyl-1H-indol-1-yl)acetyl)-N-(2′-chloro-2-fluorobiphenyl-3-yl)-4-fluoropyrrolidine-2-carboxamide], the IC50 is less than 1 µM.
As to `CC(=O)c1ccc(Cl)c(-c2cccc(NC(=O)[C@@H]3C[C@@H](F)CN3C(=O)Cn3nc(C(N)=O)c4ccccc43)c2F)c1` [Compound 117, 1-(2-((2S,4R)-2-((5′-Acetyl-2′-chloro-2-fluoro-[1,1′-biphenyl]-3-yl)carbamoyl)-4-fluoropyrrolidin-1-yl)-2-oxoethyl)-1H-indazole-3-carboxamide], the IC50 was less than 1 µM.
Same read-out and setting: the same measure for `CC(=O)c1cn(CC(=O)N2C[C@H](F)C[C@H]2C(=O)Nc2cccc(Br)n2)c2ccc(C3(NC(=O)c4ncccn4)CC3)cc12` [Compound 119, N-(1-(3-acetyl-1-(2-((2S,4R)-2-(6-bromopyridin-2-ylcarbamoyl)-4-fluoropyrrolidin-1-yl)-2-oxoethyl)-1H-indol-5-yl)cyclopropyl) pyrimidine-2-carboxamide]: less than 1 µM; for `NC(=O)c1nn(CC(=O)N2C[C@H](F)C[C@H]2C(=O)Nc2cccc(-c3cc(OC(F)(F)F)ccc3Cl)c2F)c2ccccc12` [Compound 120, 1-(2-((2S,4R)-2-(2′-chloro-2-fluoro-5′-(trifluoromethoxy)biphenyl-3-ylcarbamoyl)-4-fluoropyrrolidin-1-yl)-2-oxoethyl)-1H-indazole-3-carboxamide]: less than 1 µM; for `NC(=O)c1cn(CC(=O)N2C[C@H](F)C[C@H]2c2nc3cc(-c4ccccc4Cl)ccc3[nH]2)c2ccccc12` [Compound 121, 1-(2-((2S,4R)-2-(5-(2-chlorophenyl)-1H-benzo[d]imidazol-2-yl)-4-fluoropyrrolidin-1-yl)-2-oxoethyl)-1H-indole-3-carboxamide]: greater than 10 µM.
`NC(=O)c1nn(CC(=O)N2C[C@H](F)C[C@H]2C(=O)Nc2cccc(-c3ccc4[nH]cnc4c3Cl)c2F)c2ccccc12` [Compound 122, 1-(2-((2S,4R)-2-(3-(4-chloro-1H-benzo[d]imidazol-5-yl)-2-fluorophenylcarbamoyl)-4-fluoropyrrolidin-1-yl)-2-oxoethyl)-1H-indazole-3-carboxamide] came in with an IC50 of less than 1 µM.
Turning to `CC(=O)c1cn(CC(=O)N2C[C@H](F)C[C@H]2C(=O)Nc2cccc(Br)n2)c2ccc(C3(NC(=O)OC(C)(C)C)CC3)cc12` [Compound 123, tert-butyl 1-(3-acetyl-1-(2-((2S,4R)-2-(6-bromopyridin-2-ylcarbamoyl)-4-fluoropyrrolidin-1-yl)-2-oxoethyl)-1H-indol-5-yl)cyclopropyl-carbamate], the IC50 was less than 1 µM.
The same measure, in the same setting: the same measure for `CC(=O)c1cn(CC(=O)N2C[C@H](F)C[C@H]2C(=O)Nc2cccc(-c3ccccc3Cl)c2F)c2c(C#Cc3ncc(F)cn3)cccc12` [Compound 124, (2S,4R)-1-(2-(3-acetyl-7-((5-fluoropyrimidin-2-yl)ethynyl)-1H-indol-1-yl)acetyl)-N-(2′-chloro-2-fluorobiphenyl-3-yl)-4-fluoropyrrolidine-2-carboxamide]: less than 1 µM.

Staying with this assay, now noted: Table 1; Human Factor D 80 nM, substrate Z-L-Lys-SBzl; read-out: IC50.
As to `NC(=O)c1nn(CC(=O)N2C[C@H](F)C[C@H]2C(=O)Nc2cccc(-c3c(F)cc(F)cc3Cl)c2)c2cnccc12` [Compound 101, 1-(2-((2S,4R)-2-(2′-chloro-4′,6′-difluorobiphenyl-3-ylcarbamoyl)-4-fluoropyrrolidin-1-yl)-2-oxoethyl)-1H-pyrazolo[3,4-c]pyridine-3-carboxamide], the IC50 was less than 1 µM.
Take `NC(=O)c1cn(CC(=O)N2C[C@H](F)C[C@H]2C(=O)Nc2cccc(-c3ccccc3Cl)c2F)c2ccsc12` [Compound 103, 4-(2-((2S,4R)-2-(2′-chloro-2-fluorobiphenyl-3-ylcarbamoyl)-4-fluoropyrrolidin-1-yl)-2-oxoethyl)-4H-thieno[3,2-b]pyrrole-6-carboxamide]: the IC50 was less than 1 µM.
The same measure, in the same setting: under `NC(=O)c1nn(CC(=O)N2C[C@H](F)C[C@H]2C(=O)Nc2cccc(-c3ccccc3Cl)c2F)c2c1CCCC2` [Compound 104, 1-(2-((2S,4R)-2-((2′-chloro-2-fluoro-[1,1′-biphenyl]-3-yl)carbamoyl)-4-fluoropyrrolidin-1-yl)-2-oxoethyl)-4,5,6,7-tetrahydro-1H-indazole-3-carboxamide] stands less than 1 µM; under `NC(=O)c1nn(CC(=O)N2C[C@H](F)C[C@H]2C(=O)Nc2cccc(Br)n2)c2ccsc12` [Compound 106, 1-(2-((2S,4R)-2-((6-Bromopyridin-2-yl)carbamoyl)-4-fluoropyrrolidin-1-yl)-2-oxoethyl)-1H-thieno[3,2-c]pyrazole-3-carboxamide], less than 1 µM.
Take `NC(=O)c1nn(CC(=O)N2[C@@H]3C[C@@H]3C[C@H]2C(=O)NCc2cccc(Cl)c2F)c2ccsc12` [Compound 107, 1-(2-((1R,3S,5R)-3-(3-chloro-2-fluorobenzylcarbamoyl)-2-azabicyclo[3.1.0]hexan-2-yl)-2-oxoethyl)-1H-thieno[3,2-c]pyrazole-3-carboxamide]: the IC50 was less than 1 µM.
Take `COc1ncc(-c2cn(CC(=O)N3C[C@H](F)C[C@H]3C(=O)Nc3cccc(-c4ccccc4Cl)c3F)nc2C(N)=O)cn1` [Compound 110, 1-(2-((2S,4R)-2-((2′-Chloro-2-fluoro-[1,1′-biphenyl]-3-yl)carbamoyl)-4-fluoropyrrolidin-1-yl)-2-oxoethyl)-4-(2-methoxypyrimidin-5-yl)-1H-pyrazole-3-carboxamide]: the IC50 is greater than 10 µM.
Take `Cc1cc2c(s1)c(C(N)=O)nn2CC(=O)N1C[C@H](F)C[C@H]1C(=O)Nc1cccc(-c2ccccc2Cl)c1F` [Compound 113, 1-(2-((2S,4R)-2-((2′-Chloro-2-fluoro-[1,1′-biphenyl]-3-yl)carbamoyl)-4-fluoropyrrolidin-1-yl)-2-oxoethyl)-5-methyl-1H-thieno[3,2-c]pyrazole-3-carboxamide]: the IC50 was less than 1 µM.
For `CC(=O)c1cn(CC(=O)N2C[C@H](F)C[C@H]2C(=O)Nc2cccc(-c3ccccc3Cl)c2F)c2c(-c3cn[nH]c3)cccc12` [Compound 114, (2S,4R)-1-(2-(3-acetyl-7-(1H-pyrazol-4-yl)-1H-indol-1-yl)acetyl)-N-(2′-chloro-2-fluorobiphenyl-3-yl)-4-fluoropyrrolidine-2-carboxamide], the IC50 is less than 1 µM.
Consider `Cc1cc2c(s1)c(C(N)=O)nn2CC(=O)N1C[C@H](F)C[C@H]1C(=O)Nc1cccc(Br)n1` [Compound 118, 1-(2-((2S,4R)-2-(6-bromopyridin-2-ylcarbamoyl)-4-fluoropyrrolidin-1-yl)-2-oxoethyl)-5-methyl-1H-thieno[3,2-c]pyrazole-3-carboxamide], for which the IC50 is less than 1 µM.
Consider `CC(=O)c1cn(CC(=O)N2C[C@H](F)C[C@H]2C(=O)Nc2cccc(Br)n2)c2ccc(C3(NC(=O)c4cncnc4)CC3)cc12` [Compound 126, N-(1-(3-acetyl-1-(2-((2S,4R)-2-(6-bromopyridin-2-ylcarbamoyl)-4-fluoropyrrolidin-1-yl)-2-oxoethyl)-1H-indol-5-yl)cyclopropyl) pyrimidine-5-carboxamide], for which the IC50 is less than 1 µM.

Still in this assay, the particulars now being: Table 2; Human Factor D 80 nM, substrate Z-L-Lys-SBzl; read-out: IC50.
On to `COC(=O)c1cc2c(s1)c(C(N)=O)nn2CC(=O)N1C[C@H](F)C[C@H]1C(=O)Nc1cccc(-c2ccccc2Cl)c1F` [Compound 129, methyl 3-carbamoyl-1-(2-((2S,4R)-2-(2′-chloro-2-fluorobiphenyl-3-ylcarbamoyl)-4-fluoropyrrolidin-1-yl)-2-oxoethyl)-1H-thieno[3,2-c]pyrazole-5-carboxylate], for which the IC50 is less than 1 µM.
For `NC(=O)c1nn(CC(=O)N2C[C@H](F)C[C@H]2C(=O)Nc2cccc(-c3cc(F)c(F)cc3Cl)c2F)c2ccc(Br)cc12` [Compound 130, 5-bromo-1-(2-((2S,4R)-2-(2′-chloro-2,4′,5′-trifluorobiphenyl-3-ylcarbamoyl)-4-fluoropyrrolidin-1-yl)-2-oxoethyl)-1H-indazole-3-carboxamide], the IC50 is less than 1 µM.
Still for that read-out and setting: the same measure for `CC(=O)c1nn(CC(=O)N2C[C@H](F)C[C@H]2C(=O)Nc2cccc(-c3ccccc3Cl)c2F)c2cc(C)sc12` [Compound 131, (2S,4R)-1-(2-(3-acetyl-5-methyl-1H-thieno[3,2-c]pyrazol-1-yl)acetyl)-N-(2′-chloro-2-fluorobiphenyl-3-yl)-4-fluoropyrrolidine-2-carboxamide]: less than 1 µM.
As to `NC(=O)c1nn(CC(=O)N2C[C@H](F)C[C@H]2C(=O)Nc2cccc(-c3ccccc3Cl)c2F)c2cc(C(=O)O)sc12` [Compound 132, 3-carbamoyl-1-(2-((2S,4R)-2-(2′-chloro-2-fluorobiphenyl-3-ylcarbamoyl)-4-fluoropyrrolidin-1-yl)-2-oxoethyl)-1H-thieno[3,2-c]pyrazole-5-carboxylic acid], the IC50 is less than 1 µM.
`O=C(NCc1cccc(Cl)c1F)[C@@H]1C[C@@H](F)CN1C(=O)Cn1cc(-c2cnco2)c2ccccc21` [Compound 133, (2S,4R)-N-(3-chloro-2-fluorobenzyl)-4-fluoro-1-(2-(3-(oxazol-5-yl)-1H-indol-1-yl)acetyl) pyrrolidine-2-carboxamide]: the IC50 was less than 1 µM.
